Patent US11065335B2, “Methods of treating leukemia using compositions containing bis(benzylthio)octanoic acid and ion pairs thereof” (Rafael Pharmaceuticals, Inc., priority 2007, dated 2021)
Counter-ions that a name gives are not always drawn.

Tests used:
[1] = tested on: A2780 ovarian tumor cells and BXPC3 human pancreatic cancer cells; assay: CellTiter Glo cell viability assay, text statements not split by cell line; assay type: cell-based; details: vehicle alone 3200 μM
Description: Two types of human tumor cells were used in this investigation: BXPC3 human pancreatic cancer cells and A2780 human ovarian cancer cells. The BXPC3 cells were originally obtained from American Type Cell Culture (ATCC). […] The tumor cells were split at a ratio of 1:5 every 4-5 days by trypsinization and resuspended in fresh medium in a new flask. Cells were harvested for experiments at 70-90% confluency.
(§1) The corresponding vehicle concentrations were 64, 32, 16, 12, and 4 mM respectively. A sixty-four mM aliquot of vehicle was dissolved in 10 mL of water. […] A 5 μL aliquot of this stock solution was added to 95 μL of tumor cells in media. Upon dilution in the wells, the corresponding drug concentrations were 400, 200, 100, 75 and 25 μM respectively.
This gave a 16 mM solution.
This stock was further diluted serially in complete media to give 8 mM, 4 mM 2 mM, 1.5 mM and 0.5 mM working solutions.
The tumor cells were treated for 24 hrs with the test article in serum-containing medium. After 24 hrs of treatment the number of viable tumor cells was determined.
The number of cells targeted for the study was 4×10^3 per well in 100 μL of medium. The actual number of cells were counted and seeded in the wells of a 96 well-plate.
For each cell line the concentrations of test articles or vehicles specified above was used. Five μL of the working solution for each test article or vehicle was added to 95 μL of cell culture media. The corresponding final concentrations of test articles are 20 fold more diluted than the working solutions. […] Additionally, a set of wells was treated with cell culture medium in the absence of cells to obtain a value for background luminescence.
The number of viable cells was determined by using the CellTiter Glo® Assay. Specifically, reagents were mixed and allowed to come to room temperature according to instructions from Promega, Inc. (Madison, Wis.). Cell plates were removed from the cell culture incubator and left on the bench for 30 minutes until they reach room temperature. A one-hundred μL aliquot CellTiter Glo® reagent was added to each well with a 12-channel Eppendorf pipettor. The cells were lysed by shaking the plate for 2 minutes in a shaker. Then, the cells were kept at room temperature for 10 minutes to stabilize the luminescent signal. The luminescence was measured using the FLUOstar OPTIMA plate reader (BMG Labtech, Inc., Durham, N.C.).
Data from luminescence readings was copied onto EXCEL spreadsheets, and cell growth relative to untreated cells was calculated, using the following equation: […]
The calculated values were imported into SigmaPlot, v11. A Four-Parameter Logistic Curve of the “mean relative cell growth as a function of the concentrations of the test articles” was generated. The EC50 values were determined from the curves. The R-squared value provides an indication of the degree of fitness of data to the curve. For each experiment, the percentage of viable cells was be expressed as the mean of 9 replicates. The average was calculated by taking the mean±standard deviation of the three experiments.

[2] = tested on: BXPC3 human pancreatic cancer cells; assay: CellTiter Glo cell viability assay, BXPC3 cells; details: 24 hrs; for BXPC3 Cell Viability (alkali salt formulations): CPI-613 to base 1:1
Description: (§2) Two types of human tumor cells were used in this investigation: BXPC3 human pancreatic cancer cells and A2780 human ovarian cancer cells. The BXPC3 cells were originally obtained from American Type Cell Culture (ATCC). The ovarian tumor cells were gifts from Roswell Park Cancer Institute, Buffalo, N.Y. All tumor cells were maintained at 37° C. in a humidified 5% CO2 atmosphere in T75 tissue culture flasks containing 20 mL of Roswell Park Memorial Institute (RPMI) 1640 containing 2 mM L-glutamine, 10% fetal bovine serum (FBS) and 1% penicillin and streptomycin (100 IU/mL penicillin and 100 μg/mL streptomycin). The tumor cells were split at a ratio of 1:5 every 4-5 days by trypsinization and resuspended in fresh medium in a new flask. Cells were harvested for experiments at 70-90% confluency.
as §1, with “CPI-613 (i.e., 6,8-bis(benzylthio)octanoic acid) stock solutions at concentrations of 8, 4, 2, 1.5 and 0.5 mM were prepared in the appropriate vehicles. The molar ratio of vehicle to CPI-613 was maintained at 8:1. The” for “The”, “water. Next, 8 mM of CPI-613 was added and the mixture was stirred until a clear solution was obtained.” for “water.”
(§3) For the sodium salt and potassium salt form of CPI-613, 1 equivalent of CPI-613 solid was dissolved in water. Sixty-two mg of CPI-613 (0.00016 mol) was added to 10 mL of water, then 165 μL of 1M NaOH or KOH was added and stirred until a clear solution was obtained. This gave a 16 mM solution. The resulting 16 mM solution was then serially diluted, thereby providing 8 mM and 4 mM solutions of the CPI-613 salt form. For the ammonium salt, vehicle to drug ratio was maintained at 8:1 and the formulation was prepared using procedures analogous to those described above in Section 2 relating to preparation of CPI-613 formulations in different vehicles.
(§4) CPI-613 formulated in 1M triethanolamine (TEA) was used as an internal control during formulation screening. To prepare a 16 mM of working stock of CPI-613, 50 mg/mL of CPI-613 (128.66 mM of CPI-613 in 1M TEA) was diluted in complete cell culture media containing 10% FBS. That is, 310 μL of a 128.66 mM solution of CPI-613 in 1M TEA was added to 2.19 mL of cell culture media. This stock was further diluted serially in complete media to give 8 mM, 4 mM 2 mM, 1.5 mM and 0.5 mM working solutions. On the day of testing, 5 μL of this working solution was added to 95 μL of cell culture media (20 fold dilution) resulting final concentrations of 400, 200, 100, 75 and 25 μM CPI-613, respectively. The ratio of CPI-613 to TEA was maintained at 1:8 ratio at all times.
(§5) The cell viability of CPI-613 formulations formulated at a ratio of 1:8, CPI-613 to vehicle, was assessed by exposing the A2780 ovarian tumor cells and BXPC3 human pancreatic cancer cells to the following CPI-613 concentrations: 400 μM (3200 μM vehicle), 200 μM (1600 μM vehicle), 100 μM (800 μM vehicle), 75 μM (600 μM vehicle) and 25 μM (200 μM vehicle) The impact of corresponding vehicles at 3200, 1600 and 800 μM concentrations was also tested in tumor cells for cell viability. […] CPI-613 in TEA was used as an internal control. The tumor cells were treated for 24 hrs with the test article in serum-containing medium. After 24 hrs of treatment the number of viable tumor cells was determined.
(§6) The number of cells targeted for the study was 4×10^3 per well in 100 μL of medium. The actual number of cells were counted and seeded in the wells of a 96 well-plate. The cells were incubated for ˜24 hrs before addition of CPI-613.
(§7) For each cell line the concentrations of test articles or vehicles specified above was used.

[3] = tested on: A2780 human ovarian cancer cells; assay: CellTiter Glo cell viability assay, A2780 cells; details: 24 hrs; for A2780 Cell Viability (alkali salt formulations): CPI-613 to base 1:1
Description: as §2
as §1, with “CPI-613 (i.e., 6,8-bis(benzylthio)octanoic acid) stock solutions at concentrations of 8, 4, 2, 1.5 and 0.5 mM were prepared in the appropriate vehicles. The molar ratio of vehicle to CPI-613 was maintained at 8:1. The” for “The”, “water. Next, 8 mM of CPI-613 was added and the mixture was stirred until a clear solution was obtained.” for “water.”
as §3, §4, §5, §6, §7

[4] = CellTiter Glo cell viability assay, BXPC3 cells; details: human, BXPC3 Cell Viability; for viability: 24 hrs
Description: as §2
as §1, with “CPI-613 (i.e., 6,8-bis(benzylthio)octanoic acid) stock solutions at concentrations of 8, 4, 2, 1.5 and 0.5 mM were prepared in the appropriate vehicles. The molar ratio of vehicle to CPI-613 was maintained at 8:1. The” for “The”, “water. Next, 8 mM of CPI-613 was added and the mixture was stirred until a clear solution was obtained.” for “water.”
as §3, §4, §5, §6, §7

[5] = CellTiter Glo cell viability assay, A2780 cells; details: human, A2780 Cell Viability; for viability: 24 hrs
Description: as §2
as §1, with “CPI-613 (i.e., 6,8-bis(benzylthio)octanoic acid) stock solutions at concentrations of 8, 4, 2, 1.5 and 0.5 mM were prepared in the appropriate vehicles. The molar ratio of vehicle to CPI-613 was maintained at 8:1. The” for “The”, “water. Next, 8 mM of CPI-613 was added and the mixture was stirred until a clear solution was obtained.” for “water.”
as §3, §4, §5, §6, §7

[6] = BXPC3 pancreatic cancer cells, vehicle alone 800 μM
[7] = BXPC3 pancreatic cancer cells, vehicle alone 1600 μM
[8] = BXPC3 pancreatic cancer cells, vehicle alone 3200 μM
[9] = A2780 ovarian cancer cells, vehicle alone 800 μM
[10] = A2780 ovarian cancer cells, vehicle alone 1600 μM
[11] = A2780 ovarian cancer cells, vehicle alone 3200 μM

Compound	impact of vehicle on cancer cell killing [1]	viability at 24 h, 800 μM [4, 6] [%]	viability at 24 h, 1600 μM [4, 7] [%]	viability at 24 h, 3200 μM [4, 8] [%]	viability at 24 h, 800 μM [5, 9] [%]	viability at 24 h, 1600 μM [5, 10] [%]	viability at 24 h, 3200 μM [5, 11] [%]	other results
NCCCO [3-amino-1-proponol]	did not show a significant impact on cancer cell killing	–	–	–	–	–	–	–
O=C(O)CCCCC(CCSCc1ccccc1)SCc1ccccc1 (stereo not drawn) [CPI-613 potassium salt]	–	–	–	–	–	–	–	BXPC3 Cell Viability (alkali salt formulations) ([2]; CPI-613 25 μM): + (tumor cell viability of >95%); BXPC3 Cell Viability (alkali salt formulations) ([2]; CPI-613 75 μM): ++ (tumor cell viability of >70% up to 95%); BXPC3 Cell Viability (alkali salt formulations) ([2]; CPI-613 100 μM): ++ (tumor cell viability of >70% up to 95%); BXPC3 Cell Viability (alkali salt formulations) ([2]; CPI-613 200 μM): +++ (tumor cell viability of >30% up to 70%); BXPC3 Cell Viability (alkali salt formulations) ([2]; CPI-613 400 μM): +++++ (tumor cell viability of ≤10%); cell kill in BXPC3 cells ([2]; salt formulation at 200 μM): ~50%; cell kill in BXPC3 cells ([2]; salt formulation at 400 μM): all the cells were killed; A2780 Cell Viability (alkali salt formulations) ([3]; CPI-613 25 μM): ++ (tumor cell viability of >70% up to 95%); A2780 Cell Viability (alkali salt formulations) ([3]; CPI-613 75 μM): ++ (tumor cell viability of >70% up to 95%); A2780 Cell Viability (alkali salt formulations) ([3]; CPI-613 100 μM): ++ (tumor cell viability of >70% up to 95%); A2780 Cell Viability (alkali salt formulations) ([3]; CPI-613 200 μM): +++ (tumor cell viability of >30% up to 70%); A2780 Cell Viability (alkali salt formulations) ([3]; CPI-613 400 μM): +++++ (tumor cell viability of ≤10%); cell kill in A2780 cells ([3]; salt formulation at 200 μM): ~65%; cell kill in A2780 cells ([3]; salt formulation at 400 μM): all the cells were killed
OCCNCCO [Diethanolamine]	did not show a significant impact on cancer cell killing	85 to 95	85 to 95	85 to 95	85 to 95	85 to 95	> 95	–
CCNCC [Diethylamine]	did not show a significant impact on cancer cell killing	–	–	–	–	–	–	viability at 24 h, 800 μM ([4]; vehicle alone 800 μM): > 95%; viability at 24 h, 1600 μM ([4]; vehicle alone 1600 μM): 70 to 85%; viability at 24 h, 3200 μM ([4]; vehicle alone 3200 μM): < 70%; viability at 24 h, 800 μM ([5]; vehicle alone 800 μM): > 95%; viability at 24 h, 1600 μM ([5]; vehicle alone 1600 μM): > 95%; viability at 24 h, 3200 μM ([5]; vehicle alone 3200 μM): 85 to 95%
CC(O)CNCC(C)O (stereo not drawn) [Diisopropanolamine]	appear to have come cell killing effects	–	–	–	–	–	–	–
NCCO [Ethanolamine]	–	85 to 95	85 to 95	85 to 95	> 95	> 95	> 95	–
NCCN [Ethylenediamine]	appear to have come cell killing effects	> 95	70 to 85	< 70	85 to 95	85 to 95	< 70	–
NCCCC[C@H](N)C(=O)O [Lysine]	did not show a significant impact on cancer cell killing	> 95	> 95	> 95	> 95	> 95	> 95	–
CNC[C@H](O)[C@@H](O)[C@H](O)[C@H](O)CO [Meglumine]	did not show a significant impact on cancer cell killing	–	–	–	–	–	–	viability ([4]; vehicle alone 800 μM): 85 to 95%; viability ([4]; vehicle alone 1600 μM): 85 to 95%; viability ([4]; vehicle alone 3200 μM): 85 to 95%; viability ([5]; vehicle alone 800 μM): > 95%; viability ([5]; vehicle alone 1600 μM): > 95%; viability ([5]; vehicle alone 3200 μM): > 95%
C1CNCCN1 [Piperazine]	did not show a significant impact on cancer cell killing	85 to 95	85 to 95	70 to 85	85 to 95	70 to 85	85 to 95	–
CCN(CC)CC [Triethylamine]	did not show a significant impact on cancer cell killing	> 95	> 95	> 95	> 95	> 95	> 95	–
Aminopropanediol	did not show a significant impact on cancer cell killing	–	–	–	–	–	–	–
